Experimental data published in article PMC9852552, “Emission of floral volatiles is facilitated by cell-wall non-specific lipid transfer proteins” (Nature Communications, 2023).
Where “and” joins values, the source holds several entries; their conditions need not be identical. Identical values can stand only once. Like-named read-outs stand apart in the source and are kept apart here.

Legend:
Assay type in all cases: binding, Petunia hybrida
recombinant PhnsLTP2 = assay: TNS displacement assay with recombinant PhnsLTP2; settings: PhnsLTP2 1 µM, TNS 3 µM; non-linear fitting to Michaelis-Menten equation; means ± S.E., n = 3; read-out: dissociation constant Kd (PhnsLTP2)
Description: (§1) To directly test whether PhnsLTP3 can bind petunia VOCs, in vitro displacement assays were performed using the recombinant PhnsLTP3 protein and fluorescent 6-(p-toluidino)−2-naphthalenesulfonate (TNS) in the presence of petunia volatiles. […] TNS fluoresces strongly when bound to the hydrophobic regions of the protein, while it has weak fluorescence in an aqueous solution. […] Potential ligands of the protein will displace the bound TNS from the hydrophobic protein pocket into the aqueous environment leading to a decrease in the fluorescent signal, which was used to calculate the dissociation constant of the protein with ligand. […] To test whether PhnsLTP2 and PhnsLTP3 can bind other VOCs, we assayed the terpenoids: limonene, linalool, and nerolidol, as well as methyl jasmonate in TNS displacement assays. Both PhnsLTP2 and PhnsLTP3 were able to bind tested volatile compounds with Kds in the micromolar range (Supplementary Figs. 16 and 17).
(§2) The fluorescence-based-binding assays were performed largely according to previous publications[12],[52] with slight modifications. […] All mixtures were excited at 320 nm, and the fluorescence emission at 437 nm was recorded using a plate reader (SpectraMax iD3, Molecular Devices) at equilibrium after 5 min of incubation at 25 °C giving the background fluorescence Fmix0 and FTNS0 . The tested ligands dissolved in 2 µL DMSO were then added to the mixtures and TNS only to different final concentrations, and the fluorescence emissions were recorded at equilibrium after 5 min of incubation ( Fmixligand and FTNSligand ). To account for the change in the TNS fluorescence intensity upon adding the solvent DMSO, the background fluorescence of TNS ( FTNSsol ) as well as each PhnsLTP with TNS ( Fmixsol ) were measured. The ratios RTNS=FTNSsol/FTNS0 and Rmix=Fmixsol/Fmix0 were calculated to calibrate the fluorescence. Three measurements were taken for each concentration. The results were expressed as a percentage of fluorescence quenched Fmixligand/Rmix−FTNSligand/RTNS/Fmix0−FTNS0×100% . The corresponding dissociation constants kd were obtained by non-linear regression fitting of the binding kinetics to the Michaelis-Menten equation.
Supplementary Figure 16 | Binding kinetics of recombinant PhnsLTP2 with phenylpropanoids/benzenoids by petunia flowers, terpenoids and methyl jasmonate.
TNS displacement assays were performed at fixed concentrations of PhnsLTP2 (1 µM) and TNS (3 µM) and the fluorescence was measured before and after the tested compounds were added at various concentrations. The results are expressed as percentage of fluorescence quenched with respect to the concentration of added compound. The binding curves were obtained by non-linear fitting to the Michaelis-Menten equation (solid line in the graph) and the dissociation constants Kd [µM] were obtained. Phenylacetaldehyde, eugenol, and […]
corresponding binding curves. All data are means ±S.E. (n = 3 biological replicates).

recombinant PhnsLTP3 = assay: TNS displacement assay with recombinant PhnsLTP3; settings: for Kd / Percentage fluorescence quenched: PhnsLTP3 1 µM, TNS 3 µM; for Kd: means ± S.E., n = 3; for Percentage fluorescence quenched: three biological replicates (c2-c4); for Percentage fluorescence quenched (%): biological replicates 1-3, Supplementary Figure 16
Description: as §1
Fig. 5 Binding kinetics of recombinant PhnsLTP3 with VOCs emitted by petunia flowers. TNS displacement assays were performed at fixed concentrations of PhnsLTP3 (1 µM) and TNS (3 µM) and the fluorescence was measured before and after the tested compounds were added at various concentrations. The results are expressed as percentage of fluorescence quenched with respect to the concentration of added compound. The binding curves were obtained by non-linear fitting to the Michaelis-Menten equation (solid line in the graph) and the dissociation constants Kd [µM] were obtained. […] All data are means ± S.E. (n = 3 biological replicates).
as §2
The binding curves of PhnsLTP3 with various VOC compounds were obtained by non-linear fitting to the one-binding-site (Eq. (1)) and two-binding-site (Eq. (2)) models. The equations assume that the ligand binds to multiple independent binding sites and that the binding to each site follows the law of mass action:1 %offluorescencequenched=Bmax×[TNS]/kd+[TNS] 2 %offluorescencequenched=Bmax1×[TNS]/kd1+[TNS]+Bmax2×[TNS]/kd2+[TNS] […]
PhnsL TP3 (1 µ M)and TNS (3 µ M)and the fluorescence was measured before and after the tested compounds were added at various concentrations. The results are expressed as percentage of fluorescence quenched with respect to the concentration of added compound.
The binding curves were obtained by non-linear fitting to the Michaelis-Menten equation (solid line in the graph) and the dissociation constants Kd [µ M]were obtained. All data are means ±S.E. (n = 3 biological replicates).
Supplementary Figure 25 | Analysis of number of binding sites of PhnsLTP3.
TNS displacement assay was performed at fixed concentrations of PhnsLTP3 (1 µM) and TNS (3 µM) and the fluorescence was measured before and after methyl […]

PhnsLTP3 = assay: Activity of PhnsLTP3 with TNS (TNS fluorescence); settings: for TNS fluorescence with boiled PhnsLTP3: three biological replicates
Description: as §1, §2
Supplementary Figure 15 | Protein purification and characterization of PhnsLTP1, PhnsLTP2, and PhnsLTP3 activity with TNS. a, SDS-PAGE analysis of PhnsLTP1 after affinity chromatography on Ni-NTA agarose (lane A) and subsequent cation exchange chromatography on HiTrapTM SP HP-Cytiva (lane B). 5.3 µg protein were loaded per each lane .b, SDS-PAGE analysis of 8.75 µg of purified PhnsLTP 1, PhnsLTP 2 , and PhnsLTP 3. […] P values were determined by one-way ANOVA with the Tukey’s multiple comparisons test relative to TNS background (black) and boiled PhnsLTP3 in the presence of 200 mM DTT (blue). […]

PhnsLTP2 = assay: Activity of PhnsLTP2 with TNS (TNS fluorescence); settings: three biological replicates (c2-c4); listed as PhnsLTP2+TNS
Description: (§3) To directly test whether PhnsLTP3 can bind petunia VOCs, in vitro displacement assays were performed using the recombinant PhnsLTP3 protein and fluorescent 6-(p-toluidino)−2-naphthalenesulfonate (TNS) in the presence of petunia volatiles. […] TNS fluoresces strongly when bound to the hydrophobic regions of the protein, while it has weak fluorescence in an aqueous solution. […] Potential ligands of the protein will displace the bound TNS from the hydrophobic protein pocket into the aqueous environment leading to a decrease in the fluorescent signal, which was used to calculate the dissociation constant of the protein with ligand. […]
(§4) The fluorescence-based-binding assays were performed largely according to previous publications[12],[52] with slight modifications. […] All mixtures were excited at 320 nm, and the fluorescence emission at 437 nm was recorded using a plate reader (SpectraMax iD3, Molecular Devices) at equilibrium after 5 min of incubation at 25 °C giving the background fluorescence Fmix0 and FTNS0 . The tested ligands dissolved in 2 µL DMSO were then added to the mixtures and TNS only to different final concentrations, and the fluorescence emissions were recorded at equilibrium after 5 min of incubation ( Fmixligand and FTNSligand ). […] The ratios RTNS=FTNSsol/FTNS0 and Rmix=Fmixsol/Fmix0 were calculated to calibrate the fluorescence. […]

PhnsLTP1 = assay: Activity of PhnsLTP1 with TNS (TNS fluorescence)
Description: as §3, §4

[1] = non-linear fitting to Michaelis-Menten equation (one binding site), read-out: dissociation constant Kd (PhnsLTP3)

Question: With `COC(=O)c1ccccc1` [Methylbenzoate] as the compound, how does the Kd (recombinant PhnsLTP2) read?
Answer: The Kd was 534 ± 302 µM.

Question: What about the Kd (recombinant PhnsLTP3; [1]) of the same compound?
Answer: The Kd was 271 ± 91.1 µM.

Question: What about the Kd (recombinant PhnsLTP3; two-binding-site fit, read-out: dissociation constant Kd1 (PhnsLTP3, two-binding-site model)) of the same compound?
Answer: Its Kd is 521 ± 89.5 µM.

Question: What about the Kd (recombinant PhnsLTP3; two-binding-site fit, read-out: dissociation constant Kd2 (PhnsLTP3, two-binding-site model)) of the same compound?
Answer: The Kd was 2 ± 1.9 µM.

Question: And the Percentage fluorescence quenched (recombinant PhnsLTP3; VOC concentration 3 µM)?
Answer: The Percentage fluorescence quenched was 6.48% and 6.57% (2×).

Question: And the “Percentage fluorescence quenched (%)” value (recombinant PhnsLTP3; VOC concentration 3 µM)?
Answer: The value was 8.70% and 11.37% and 17.83%.

Question: And the Percentage fluorescence quenched (recombinant PhnsLTP3; VOC concentration 30 µM)?
Answer: Its Percentage fluorescence quenched is 10.07% and 16.15% and 14.94%.

Question: What about the “Percentage fluorescence quenched (%)” value (recombinant PhnsLTP3; VOC concentration 30 µM) of the same compound?
Answer: Its value is 3.75% and 8.76% and 8.44%.

Question: What about the Percentage fluorescence quenched (recombinant PhnsLTP3; VOC concentration 300 µM) of the same compound?
Answer: Its Percentage fluorescence quenched is 37.30% and 35.09% and 38.77%.

Question: What about the “Percentage fluorescence quenched (%)” value (recombinant PhnsLTP3; VOC concentration 300 µM) of the same compound?
Answer: The value was 16.10% and 21.79% and 13.64%.

Question: And the Percentage fluorescence quenched (recombinant PhnsLTP3; VOC concentration 1500 µM)?
Answer: Its Percentage fluorescence quenched is 74.64% and 66.75% and 71.33%.

Question: What about the “Percentage fluorescence quenched (%)” value (recombinant PhnsLTP3; VOC concentration 1500 µM) of the same compound?
Answer: The value was 40.72% and 46.43% and 46.19%.

Question: What about the Percentage fluorescence quenched (recombinant PhnsLTP3; VOC concentration 3000 µM) of the same compound?
Answer: Its Percentage fluorescence quenched is 78.82% and 71.40% and 74.18%.

Question: And the “Percentage fluorescence quenched (%)” value (recombinant PhnsLTP3; VOC concentration 3000 µM)?
Answer: Its value is 46.60% and 49.81% and 49.98%.

Question: For `Cc1ccc(Nc2ccc3cc(S(=O)(=O)O)ccc3c2)cc1` [TNS, 6-(p-toluidino)−2-naphthalenesulfonate], which “TNS fluorescence with boiled PhnsLTP3” value (PhnsLTP3; boiled PhnsLTP3 in the presence of 200 mM DTT (negative control), listed as Boiled PhnsLTP3+TNS (200 mM DTT)) is on record?
Answer: Its value is 508777 A.U. and 481415 A.U. and 534530 A.U.

Question: What about the “TNS fluorescence with boiled PhnsLTP3” value (PhnsLTP3; boiled PhnsLTP3 in the presence of 400 mM DTT (negative control), listed as Boiled PhnsLTP3+TNS (400 mM DTT)) of the same compound?
Answer: The value was 531842 A.U. and 534148 A.U. and 522476 A.U.

Question: And the “TNS fluorescence in the presence of PhnsLTP3 (in words)” value (PhnsLTP3; relative to buffer and denatured, dithiothreitol-reduced PhnsLTP3 controls)?
Answer: Its value is “intense TNS fluorescence”.

Question: And the “TNS fluorescence with PhnsLTP3” value (PhnsLTP3; three biological replicates (c2-c4), listed as PhnsLTP3+TNS)?
Answer: The value was 1399068 A.U. and 1386931 A.U. and 1338392 A.U.

Question: What about the “TNS fluorescence with PhnsLTP2” value (PhnsLTP2) of the same compound?
Answer: Its value is 1288048 A.U. and 1292857 A.U. and 1304928 A.U.

Question: What about the “TNS-binding activity of PhnsLTP1 (in words)” value (PhnsLTP1) of the same compound?
Answer: The value was “did not display TNS-binding activity”.

Question: What about the “TNS fluorescence with PhnsLTP1” value (PhnsLTP1; three biological replicates (c2-c4), listed as PhnsLTP1+TNS) of the same compound?
Answer: The value was 198735 A.U. and 195455 A.U. and 188087 A.U.

Question: With `COc1cc(C=O)ccc1O` [Vanillin] as the compound, how does the Kd (recombinant PhnsLTP2) read?
Answer: Its Kd is 114 ± 12.9 µM.

Question: What about the Kd (recombinant PhnsLTP3; [1]) of the same compound?
Answer: The Kd was 26.3 ± 10.4 µM.

Question: And the Percentage fluorescence quenched (recombinant PhnsLTP3; VOC concentration 3 µM)?
Answer: Its Percentage fluorescence quenched is 5.78% and 5.07% and 1.21%.

Question: And the Percentage fluorescence quenched (recombinant PhnsLTP3; VOC concentration 30 µM)?
Answer: The Percentage fluorescence quenched was 6.62% and 14.22% and 7.63%.

Question: And the Percentage fluorescence quenched (recombinant PhnsLTP3; VOC concentration 300 µM)?
Answer: Its Percentage fluorescence quenched is 35.76% and 34.45% and 15.77%.

Question: And the Percentage fluorescence quenched (recombinant PhnsLTP3; VOC concentration 1500 µM)?
Answer: Its Percentage fluorescence quenched is 17.05% and 24.17% and 26.21%.

Question: What about the Percentage fluorescence quenched (recombinant PhnsLTP3; VOC concentration 3000 µM) of the same compound?
Answer: The Percentage fluorescence quenched was 22.96% and 20.23% and 21.72%.
